Measurements reported in article PMC11869560, “Anticancer and cancer preventive activities of shogaol and curcumin from Zingiberaceae family plants in KG-1a leukemic stem cells” (BMC Complementary Medicine and Therapies, 2025).
Converted amounts (≈) assume the structure as drawn. Read-outs that look alike come from different tables or passages of the source.

Key:
KG-1a cells [1] = experiment: MTT cytotoxicity assay in KG-1a cells; assay type: cell-based, human; conditions: for IC50 / IC20: Homo sapiens; for IC20: incubation for 48 h, read-out: IC20 KG-1a (inhibitory concentration at 20% growth); for Selectivity index (SI): IC50 for normal cells (PBMCs) / IC50 for cancer cells (KG-1a)
Protocol: (§1) MTT (3-(4,5-dimethylthiazol-2-yl)-2,5-diphenyltetrazolium bromide) assay was used to investigate the cytotoxicity of the test samples. KG-1a (1.5 × 10^4 cells/well), K562 (1.0 × 10^4 cells/well), PBMCs (1.0 × 10^5 cells/well), A549 (5.0 × 10^3 cells/well), MCF-7 (5.0 × 10^3 cells/well), and HeLa (5.0 × 10^3 cells/well) were seeded into a 96-well plate and incubated overnight at 37 °C with 5% CO2. […] After that, 5 mg/mL of MTT dye solution (Sigma-Aldrich, MA, USA) was added and incubated for 4 h. The produced formazan crystals were dissolved in 200 µL of DMSO (Sigma-Aldrich, MA, USA); then, the optical density (OD) was measured using an ELISA plate reader (Metertech, Taipei, Taiwan) at 578 nm with a reference wavelength of 630 nm. The percentage of surviving cells was calculated from the absorbance values of the test and control wells using the following Equation. 1 [drawing 1]
(§2) where ODsample is a mean absorbance in test well and ODvehicle control is a mean absorbance in VC well. The average percentage of surviving cells at each concentration obtained from triplicate experiments was plotted as a dose-response curve. Inhibitory concentration values at 50% growth (IC50 value) were defined as the lowest concentration of the test sample that inhibited cell growth by 50% compared to the untreated control.
(§3) To calculate IC50 values, a dose-response curve was fitted using non-linear regression analysis, as described in the GraphPad Prism guidelines (https://www.graphpad.com/support/faq/how-to-determine-an-icsub50sub/). The IC50 value was obtained by determining the point at which the curve intersected 50% growth inhibition. Non-linear regression graphs of the dose-response curve for each compound are provided in the supplementary data file (Figs. S1–S8).
where IC50 N is IC50 for normal cells and IC50 C is IC50 for cancer cells which were treated with the same compounds in both cells.

PBMCs = experiment: MTT cytotoxicity assay in PBMCs; assay type: cell-based, human; conditions: Homo sapiens, PBMC; for IC20: incubation for 48 h, read-out: IC20 PBMCs (inhibitory concentration at 20% growth)
Protocol: PBMCs were isolated from blood samples using the Ficoll-Hypaque technique. Initially, 10–20 mL of blood was collected in a heparin tube at a ratio of 1:500 from a minimum of three healthy volunteers. Subsequently, the blood samples were diluted with Phosphate buffer saline (PBS), pH 7.4, at a ratio of 1:1 to reduce viscosity. Histopaque-1077 (Sigma-Aldrich, MA, USA) was then underlaid the diluted sample and centrifuged at 400×g for 30 min. The resulting PBMCs were collected, washed with PBS, pH 7.4, and prepared for further experiments.
as §1, §2, §3

RAW264.7 cells = experiment: Cytotoxicity (IC20, cell viability) in RAW264.7 cells; assay type: cell-based; conditions: Mus musculus, read-out: IC20 RAW264.7 (inhibitory concentration at 20% growth)
Protocol: MTT (3-(4,5-dimethylthiazol-2-yl)-2,5-diphenyltetrazolium bromide) assay was used to investigate the cytotoxicity of the test samples. […] After that, 5 mg/mL of MTT dye solution (Sigma-Aldrich, MA, USA) was added and incubated for 4 h. The produced formazan crystals were dissolved in 200 μL of DMSO (Sigma-Aldrich, MA, USA); then, the optical density (OD) was measured using an ELISA plate reader ([…], Taiwan) at 578 nm with a reference wavelength of 630 nm. The percentage of surviving cells was calculated from the absorbance values of the test and control wells using the following Equation. 1 [drawing 1] […] Afterward, supernatants were collected, and the levels of TNF-α and NO were measured using the Mouse TNF alpha Uncoated ELISA Kit (InvitrogenTM, ThermoFisher Scientific, MA, USA) and the Total Nitric Oxide Assay Kit (InvitrogenTM, ThermoFisher Scientific, MA, USA), respectively, according to the manufacturer's instructions.

[2] = system: WT1 protein expression in KG-1a cells; experiment: WT1 protein expression in KG-1a cells by Western blotting; assay type: cell-based, human; conditions: IC20 concentrations, 48 h, normalized to GAPDH
Protocol: (§4) KG-1a cells (1.5 × 10^5 cells/mL) were treated with compounds or extracts at different incubation times. Then, the cells were harvested and the whole proteins were extracted using a RIPA buffer (25 mM Tris-base, pH 7.6, 0.1% SDS, 1% Triton X-100, 150 mM NaCl, and 1 mM EDTA). The protein concentration was measured using the Folin-Lowry or Bradford assay. The whole protein lysates (30 µg/lane) were then separated through 7.5% SDS-PAGE under reducing conditions and then transferred to PVDF membranes. The membranes were blocked in 5% skim milk in PBS, pH 7.4 at RT for 2 h, then, target proteins were probed with specific primary antibodies (anti-WT1, anti-CD34, anti-GAPDH, anti-cleaved caspase-3, anti-cleaved PARP, anti-phospho-Akt, anti-phospho-c-Jun, anti-phospho-SAPK/JNK, and anti-YAP/TAZ) indicated in Table S10 which diluted at a ratio of 1:1,000 in PBS, pH 7.4 at RT for 2 h. After incubation, the membranes were rinsed 6 times with 0.1% Tween-20 (Sigma-Aldrich, MA, USA) in PBS, pH 7.4 (PBS-T), each time for 5 min. The reaction was followed by HRP-conjugated secondary antibody at 1:20,000 dilution in PBS, pH 7.4 at RT for 2 h, then, the membranes were rinsed 6 times for 5 min each with PBS-T. The proteins were shown using Immobilon Forte Western HRP substrate (Millipore, MA, USA). Finally, the protein band signal was quantified by using a scan densitometer (Bio-Rad Laboratories, CA, USA).

[3] = system: CD34 protein expression in KG-1a cells; experiment: CD34 protein expression in KG-1a cells by Western blotting; assay type: cell-based, human; conditions: IC20 concentrations, 48 h, normalized to GAPDH
Protocol: as §4

KG-1a cells [4] = experiment: Trypan blue exclusion test, cell numbers of KG-1a cells; assay type: cell-based, human; conditions: IC20 concentrations, 48 h
Protocol: (§5) This test was used to confirm the cytotoxicity of the test samples. The cancer cells after exposure to crude ethanolic extracts and active compounds for 48 h were harvested and washed with ice-cold PBS, pH 7.4 for 3 times. Then, the cells were resuspended with PBS, pH 7.4. The cell suspensions were diluted with PBS, pH 7.4 at the appropriate dilution before being mixed with 0.2% trypan blue solution at 1:2 dilution for cell count on a hemocytometer. From this test, the viable cells and the dead cells could also be obviously detected.
as §5, with “crude ethanolic extracts and active compounds. KG-1a” for “the test samples. The cancer”

[5] = Table S8, PBMCs, first replicate, read-out: IC50 value R1
[6] = Table S8, PBMCs, second replicate, read-out: IC50 value R2
[7] = Table S8, PBMCs, third replicate, read-out: IC50 value R3
[8] = active compounds and drugs, MTT, 48 h, read-out: IC50 PBMCs
[9] = KG-1a, 48 h, active compounds and drugs, MTT, 48 h, read-out: IC50 KG-1a
[10] = KG-1a, Table S7, KG-1a, first replicate, read-out: IC50 value R1
[11] = KG-1a, Table S7, KG-1a, second replicate, read-out: IC50 value R2
[12] = KG-1a, Table S7, KG-1a, third replicate, read-out: IC50 value R3
[13] = KG-1a, Table S7, KG-1a, mean of R1-R3, read-out: IC50 value Mean
[14] = Table S8, PBMCs, mean of R1-R3, read-out: IC50 value Mean
[15] = KG-1a, 48 h, drugs, MTT, 48 h, read-out: IC50 KG-1a
[16] = drugs, MTT, 48 h, read-out: IC50 PBMCs

SMILES	Selectivity index (SI) (KG-1a cells [1]; 48 h)	IC50 (PBMCs; [5])	IC50 (PBMCs; [6])	IC50 (PBMCs; [7])	IC50 (PBMCs; [8])	IC20 (PBMCs)	IC50 (KG-1a cells [1]; [9])	IC50 (KG-1a cells [1]; [10])	IC50 (KG-1a cells [1]; [11])	IC50 (KG-1a cells [1]; [12])	IC50 (KG-1a cells [1]; [13])	IC50 (PBMCs; [14])	IC50 (KG-1a cells [1]; [15])	IC50 (PBMCs; [16])	further results
COc1cc(/C=C/C(O)=C/C(=O)/C=C/c2ccc(O)cc2)ccc1O [Demethoxycurcumin, demethoxycurcumin]	1.23	14.2 µg/mL (≈ 41.8 µM)	13.6 µg/mL (≈ 40.2 µM)	13.9 µg/mL (≈ 41 µM)	13.9 ± 0.28 µg/mL (≈ 41 µM)	7.95 ± 0.26 µg/mL (≈ 23.5 µM)									IC50 (KG-1a cells [1]; KG-1a, active compounds and drugs, MTT, 48 h, read-out: IC50 KG-1a): 11.3 ± 0.85 µg/mL (≈ 33.3 µM); IC20 (KG-1a cells [1]; KG-1a): 3.69 ± 0.53 µg/mL (≈ 10.9 µM); IC50 (KG-1a cells [1]; Table S7, KG-1a, first replicate, read-out: IC50 value R1): 10.3 µg/mL (≈ 30.5 µM); IC50 (KG-1a cells [1]; Table S7, KG-1a, second replicate, read-out: IC50 value R2): 11.6 µg/mL (≈ 34.4 µM); IC50 (KG-1a cells [1]; Table S7, KG-1a, third replicate, read-out: IC50 value R3): 11.9 µg/mL (≈ 35.1 µM); Selectivity index (SI) (KG-1a cells [1]; 48 h, listed as demethoxycurcumin): greater than 1; IC20 (RAW264.7 cells; RAW264.7, 48 h): 5.94 ± 2.02 µg/mL (≈ 17.6 µM); decrease of WT1 protein level compared to VC [2]: 33.37 ± 3.87%; decrease of CD34 protein level compared to VC [3]: 32.79 ± 1.56%
O=P1(N(CCCl)CCCl)NCCCO1 (centres unmarked) [Cyclophosphamide, cyclophosphamide, reference compound]															IC50 (KG-1a cells [1]; KG-1a, 48 h, read-out: IC50 KG-1a): > 400 µg/mL; IC50 (KG-1a cells [1]; KG-1a, read-out: IC50 value Mean): > 400 µg/mL; IC50 (KG-1a cells [1]; KG-1a, read-out: IC50 value R1): > 400 µg/mL; IC50 (KG-1a cells [1]; KG-1a, read-out: IC50 value R2): > 400 µg/mL; IC50 (KG-1a cells [1]; KG-1a, read-out: IC50 value R3): > 400 µg/mL; IC50 (PBMCs; 48 h, read-out: IC50 PBMCs): > 400 µg/mL; IC50 (PBMCs; read-out: IC50 value Mean): > 400 µg/mL; IC50 (PBMCs; read-out: IC50 value R1): > 400 µg/mL; IC50 (PBMCs; read-out: IC50 value R2): > 400 µg/mL; IC50 (PBMCs; read-out: IC50 value R3): > 400 µg/mL
O=C(/C=C/c1ccc(O)cc1)CC(=O)/C=C/c1ccc(O)cc1 [Bisdemethoxycurcumin, bisdemethoxycurcumin]	0.65	12.6 µg/mL (≈ 40.7 µM)	12.2 µg/mL (≈ 39.4 µM)	10.2 µg/mL (≈ 33.1 µM)	11.6 ± 1.25 µg/mL (≈ 37.8 µM)	6.9 ± 1.59 µg/mL (≈ 22.4 µM)	17.9 ± 0.99 µg/mL (≈ 58.1 µM)	17.1 µg/mL (≈ 55.6 µM)	17.6 µg/mL (≈ 57 µM)	19 µg/mL (≈ 61.7 µM)					IC20 (KG-1a cells [1]; KG-1a, 48 h): 7.97 ± 2.07 µg/mL (≈ 25.8 µM); IC20 (RAW264.7 cells; RAW264.7, incubation for 48 h): 2.71 ± 0.62 µg/mL (≈ 8.79 µM); decrease of total cell number compared to VC (KG-1a cells [4]): 47.21 ± 7.98%; normalized viable cell counts (KG-1a cells [4]): 962.81 ± 19.30 × 10^3 cells per 1 million total cells
Nc1ccn([C@@H]2O[C@H](CO)[C@@H](O)[C@@H]2O)c(=O)n1 [Cytarabine, cytarabine, reference compound]	> 1	> 100 µg/mL	> 100 µg/mL	> 100 µg/mL	> 100 µg/mL		> 100 µg/mL	> 100 µg/mL	> 100 µg/mL	> 100 µg/mL	> 100 µg/mL	> 100 µg/mL			
COc1cccc2c1C(=O)c1c(O)c3c(c(O)c1C2=O)C[C@@](O)(C(=O)CO)C[C@@H]3O[C@H]1C[C@H](N)[C@H](O)[C@H](C)O1 [Doxorubicin, doxorubicin, reference compound]	> 1.53	> 1 µg/mL	> 1 µg/mL	> 1 µg/mL				0.807 µg/mL (≈ 1.48 µM)	0.622 µg/mL (≈ 1.14 µM)	0.528 µg/mL (≈ 0.971 µM)		> 1 µg/mL	0.652 ± 0.142 µg/mL (≈ 1.2 µM)	> 1 µg/mL	Selectivity index (SI) (KG-1a cells [1]; 48 h, listed as doxorubicin): greater than 1
CC(=O)[C@]1(O)Cc2c(O)c3c(c(O)c2[C@@H](O[C@H]2C[C@H](N)[C@H](O)[C@H](C)O2)C1)C(=O)c1ccccc1C3=O [Idarubicin, idarubicin, reference compound]		> 1 µg/mL	> 1 µg/mL	> 1 µg/mL				0.0259 µg/mL (≈ 0.052 µM)	0.0318 µg/mL (≈ 0.0639 µM)	0.026 µg/mL (≈ 0.0522 µM)	0.0279 µg/mL (≈ 0.0561 µM)	> 1 µg/mL	0.0313 ± 0.00504 µg/mL (≈ 0.0629 µM)	> 1 µg/mL	
